The results in this text go back to patent publication US4166852A, “Piperazino-pyrimidines and their use as spasmolytic agents” (priority 1974, dated 1979).

≈ marks a conversion by molar mass, not a printed value. Counter-ions that a name gives are not always drawn. Like-named read-outs stand apart in the source and are kept apart here. Bounds are passed on as bounds.

The test system of data set [1] is serotonine plantar oedema. Description: anti-serotonine activity, serotonine plantar oedema. Type of data set: in vivo, CD (Charles RIVER) rats. Conditions: po; rat, orally; read-out: Serotonine plantar oedema AD 50. From the text: (§1) The anti-serotonine activities of the compounds according to the invention have been shown by oral administration to the CD (Charles RIVER) rats using the technique of the serotonine plantar oedema (W. Theobald and R. Domenjoz--Arzneimittel Forsch, 8, 18, 1958 and with the CD 1 (Charles RIVER) mice using the technique known as "head twitch" according to S. J. Corne, R. W. Pickering and B. T. Warner, Brit. J. Pharmacol., 20, 106, (1963). The anti-serotonine activity has also been determined on the one hand on the tricoloured guinea-pig, given intravenously, according to a method derived from H. Konzet and R. Rossler, Arch. exp. Pathol, Pharmakol., 195, 71, (1940) and on the other hand in vitro with respect to the serotonine spasm of the isolated uterus of the rat according to the technique of A. Fanchamps, W. Doepfener, H. Weidman and A. Cerletti, Schw. Med. Worsch, 90, 1940, (1960).

The test system of data set [2] is isolated duodenum of the rabbit (acetylcholine). As to the kind of experiment: spasmolytic effect on isolated duodenum, acetylcholine spasm. In kind it is cell-based. The following applies: Oryctolagus cuniculus, read-out: Spasmolytic effects EC 50 with respect to acetylcholine. From the text:
(§2) Ges. Physiol., 102, 123, (1904) with respect to the spasms of the isolated duodenum of rabbits caused either by acetylchlorine for the spasmolytic nemotropes or by barium chloride for the spasmolytic musculotropes.

Data set [3] relates to head twitch. As to the kind of experiment: anti-serotonine activity, head twitch. Conditions: Mus musculus, po; mice, orally; read-out: "Head-twitch" AD 50. In kind it is in vivo, CD 1 (Charles RIVER) mice.
Source text: as §1

Data set [4] concerns serotonine bronchospasms. Description: anti-serotonine activity, serotonine bronchospasms. In kind it is in vivo, tricoloured guinea-pig. The following applies: Cavia porcellus, iv; guinea pig, intravenously; read-out: Serotonine bronchospasms ED 50.
Source text: as §1

Data set [5] in a line: acute toxicity, LD 50, CD 1 mice. Type of data set: in vivo. The following applies: mouse, in vivo. From the text: (§3) The acute toxicities of the compounds according to the invention have been determined on CD 1 (Charles RIVER) mice by intravenous and oral methods. The LD 50 of each compound has been calculated by the cumulative method of J. J. Reed and H. Muench, (Amer. J. Hyg., 1938, 27, 493).

For data set [6], the system named is mice. As to the kind of experiment: analgesic activity, painful abdominal torsions test with phenylbenzoquinone. Type of data set: in vivo, CD 1 (Charles RIVER) mice. Conditions: Mus musculus, po; mice, orally; read-out: Phenylbenzoquinone test on mice AD 50. From the text:
The analgesic properties of the products according to the invention have been shown with CD 1 (Charles RIVER) mice in the painful abdominal torsions test with phenylbenzoquinone according to the technique of E. Siegmund, R. Cadmus and Go.Lu--Proc. Soc. Exp. Biol. Med., 95, 729, (1957).

Data set [7] has as its system dogs. Description: anti-emetic activity, apomorphine vomiting test on dogs. The following applies: for ED50: Canis lupus familiaris, po, read-out: Anti-emetic activity on dogs ED 50. Type of data set: in vivo. From the text: The anti-emetic properties of the compounds according to the invention have been shown by oral administration of apomorphine to dogs in the vomiting test according to G. Chen and C. J. Ensor, Pharmacol. exp. Therap., 98, 24 (1950).

Data set [8] deals with isolated duodenum of the rabbit (barium chloride). Description: spasmolytic effect on isolated duodenum, barium chloride spasm. Conditions: Oryctolagus cuniculus, read-out: Spasmolytic effects EC 50 with respect to barium chloride. In kind it is cell-based.
Source text: as §2

The subject of data set [9] is mouse. As to the kind of experiment: traction test, mouse. In kind it is in vivo, CD1 (Charles RIVER) mice. The following applies: po, orally, read-out: Traction AD 50. From the text:
(§4) The neuroloptic effects of the compounds according to the invention have been shown with respect to the CD rat (Charles RIVER) taken orally in the catalepsy test according to S. COURVOISIER, R. DUCROT, and L. JULOU, in Psychotropic Drugs, S. GARATTINI and V. GHETTI, Edit.--ELSEVIER Publ. Co., AMSTERDAM, LONDON, NEW YORK, PRINCETON, 1957 P. 373 and also in the traction test of CD1 (Charles RIVER) mice taken orally S. COURVOISIER, Quart. Rev. Psychiat. Neurol. 17, 25 (1956), on the one hand and also in the spontaneous motility test.

The test system of data set [10] is rat. Description: catalepsy test, rat. The following applies: po, orally, read-out: Catalepsy AD 50. Type of data set: in vivo, CD rat (Charles RIVER).
Source text: as §4

For data set [11], the system named is mice. As to the kind of experiment: acute toxicity, LD 50, CD 1 mice. In kind it is in vivo. Conditions: intravenous.
Source text: as §3

For data set [12], the system named is mouse. As to the kind of experiment: spontaneous motility test (hypomotility), mouse. In kind it is in vivo, mice. Conditions: po, 1 h, orally, 60 minutes before measuring, 50% reduction of mean motility, first 5 minutes, read-out: Hypomotility ED 50.
Source text: as §4
This latter technique comprises keeping an account of the displacements of the mice by means of a floor of metal strips which enables the spontaneous activity of the animals to be recorded during the first 5 minutes subsequent to their being introduced into the measuring chamber. The products are dispensed 60 minutes before measuring is effected and 10 mice are used per dose. The results are expressed in ED 50 which represents the dose of substance capable of reducing the mean motility of the treated animals by 50% relative to that of the sample group which has only received the dispensing carrier.

The nature of data set [13]: solubility. In kind it is physicochemical.
The mark [14] stands for this setting: intravenous, read-out: Acute toxicity for mice LD 50, intravenous.
[15] abbreviates: oral, read-out: Acute toxicity for mice LD 50, orally.

As to `CCNc1nc(Cl)c(SC)c(N2CCN(C)CC2)n1` [Example 1, 2-Ethylamino-4-N-methyl-piperazino-6-chloro-5-methylthio-pyrimidine hydrochloride], the ED50 in data set [1] is 160 mg/kg; in data set [3], 30 mg/kg; in data set [4] it was 6 mg/kg; in [6], 35 mg/kg; in data set [7], 0.35 mg/kg; in data set [9] it was above 35 mg/kg. Besides, the ED50 in [10] was found to be 85 mg/kg. Further, the EC50 worked out at 5 µg/mL in data set [2] and 1.6 µg/mL in data set [8]. Also, the results for the LD50 in [5] (setting [14]) and in [5] (setting [15]) were 41 mg/kg and around 200 mg/kg, respectively.
Regarding `CSc1c(Cl)nc(Nc2ccccc2)nc1N1CCN(C)CC1` [Example 4, 2-phenylamino-4-N-methylpiperazino-6-chloro-5-methylthio-pyrimidine hydrochloride], in data set [3], the ED50 turned out to be 60 mg/kg. Besides, in data set [11], the “Acute toxicity for mice LD 50, intravenous” value (“Acute toxicity” below) is recorded as “insoluble”. Besides, the LD50 in data set [5] (setting [15]) was around 600 mg/kg.
As to `CSc1c(Cl)nc(N)nc1N1CCN(C)CC1` [Example 6, 2-Amino-4-N-methylpiperazino-6-chloro-5-methylthio-pyrimidine hydrochloride], the ED50 is 30 mg/kg in data set [3]; 1.2 mg/kg in data set [4]; 0.11 mg/kg in [7]; above 100 mg/kg in [9]; 100 mg/kg in data set [10]. Further, the figures for the LD50 in [5] (setting [14]) and in [5] (setting [15]) were 33 mg/kg and around 225 mg/kg, respectively.
For `CNc1nc(Cl)c(SC)c(N2CCNCC2)n1` [Example 10, 2-Methylamino-4-piperazino-6-chloro-5-methylthio-pyrimidine hydrochloride], the figures for the LD50 in data set [5] (setting [14]) and in data set [5] (setting [15]) were 57 mg/kg and around 225 mg/kg, respectively. The results for the ED50 in data set [6], in [7] and in data set [10] were 65 mg/kg, 0.07 mg/kg and 75 mg/kg, respectively. Further, in data set [7] (comparison within the series, dogs), the “anti-vomiting ranking” value is listed as “the most strong anti-vomiting agents”.
As to `CC(=O)Nc1nc(Cl)c(C)c(N2CCN(C)CC2)n1` [Example 14, 2-Acetylamino-4-N-methylpiperazino-5-methyl-6-chloro-pyrimidine], the “Acute toxicity” value in [11] is “insoluble”. The LD50 in data set [5] (setting [15]) was around 270 mg/kg. Besides, the ED50 in data set [6] was determined as 35 mg/kg; in [7] (dogs, orally, apomorphine), 3.7 mg/kg.
Turning to `CSc1c(Cl)nc(N(C)C(C)=O)nc1N1CCN(C)CC1` [Example 16, 2-(N-methyl-N-acetyl)amino-4-N-methylpiperazino-5-methylthio-6-chloro-pyrimidine hydrochloride], the ED50 is 100 mg/kg in [1] and above 100 mg/kg in [3]. In data set [11], the “Acute toxicity” value is given as “insoluble”. Moreover, the LD50 in data set [5] (setting [15]) is around 525 mg/kg.
Take `CCOCCOc1nc(NC)nc(N2CCN(C)CC2)c1SC` [Example 20, 2-Methylamino-4-N-methylpiperazino-5-methylthio-6-β-ethoxyethoxy-pyrimidine hydrochloride]: in data set [11], the “Acute toxicity” value was “insoluble”. In addition, in [5] (setting [15]), the LD50 was around 265 mg/kg.
Consider `C=CCNc1nc(Cl)c(SC)c(N2CCN(C)CC2)n1` [Example 21, 2-Allylamino-4-N-methylpiperazino-6-chloro-5-methylthio-pyrimidine], for which the ED50 was above 100 mg/kg in data set [1]; 20 mg/kg in data set [3]; 0.01 mg/kg in data set [4]; 28 mg/kg in data set [12]; above 100 mg/kg in data set [6]; 0.8 mg/kg in data set [7] (dogs, orally, apomorphine). Further, the ED50 in data set [10] turned out to be 300 mg/kg. In addition, the EC50 in [2] came to 1.6 µg/mL (≈ 5.1 µM); in [8], 1 µg/mL (≈ 3.19 µM). Moreover, the LD50 in data set [5] (setting [14]) was 46 mg/kg; in data set [5] (setting [15]), around 200 mg/kg. Further, the “solubility in dilute hydrochloric acid” value in data set [13] is listed as “soluble”. The “solubility in ethanol (alcohol)” value in [13] is on record as “soluble”. For the same compound, the solubility in water result in [13] is on record as “water-insoluble”.
Turning to `CSc1c(Cl)nc(NC2CCCCC2)nc1N1CCN(C)CC1` [Example 23, 2-Cyclohexylamino-4-N-methylpiperazino-6-chloro-5-methylthiopyrimidine], the EC50 in [2] was determined as 70 µg/mL (≈ 197 µM); in [8], 0.25 µg/mL (≈ 0.702 µM). In addition, the ED50 in [3] was 67 mg/kg; in data set [4], 0.3 mg/kg; in data set [12] it was 220 mg/kg; in data set [6] it was 100 mg/kg; in [9], above 300 mg/kg; in [10] it was 300 mg/kg. Also, the LD50 in data set [5] (setting [14]) was determined as 89 mg/kg. Moreover, the “solubility in dilute hydrochloric acid” value in [13] is given as “soluble”. Also, in [13], the “solubility in ethanol (alcohol)” value is on record as “soluble”. Besides, the solubility in water result in data set [13] is “insoluble”.
For the compound `CSc1c(Cl)nc(NCc2ccccc2)nc1N1CCN(C)CC1` [Example 26, 2-Benzylamino-4-N-methylpiperazino-5-methylthio-6-chloropyrimidine], the EC50 in [2] amounted to 0.2 µg/mL (≈ 0.55 µM); in [8], 0.17 µg/mL (≈ 0.467 µM). The ED50 in [3] was 17 mg/kg; in data set [4] it was 0.05 mg/kg; in data set [12], 20 mg/kg; in data set [6], 35 mg/kg; in data set [7] (dogs, orally, apomorphine), around 2 mg/kg; in data set [9] it was 45 mg/kg. Also, the ED50 in data set [10] turned out to be 33 mg/kg. The LD50 is 85 mg/kg in data set [5] (setting [14]) and around 525 mg/kg in data set [5] (setting [15]). Also, in data set [13], the “solubility in dilute hydrochloric acid” value was “scarcely soluble”. Also, the “solubility in dilute methanesulphonic acid” value in data set [13] is on record as “soluble”. Besides, the solubility in water entry in data set [13] was “soluble”.
Regarding `CCCCN1CCN(c2nc(N(C)Cc3ccccc3)nc(Cl)c2SC)CC1` [Example 27, 2-(N-methyl N-benzylamino)-4-N-butylpiperazino-5-methylthio-6-chloropyrimidine hydrochloride], the ED50 in data set [1] is above 400 mg/kg; in [12], 160 mg/kg; in [6], 400 mg/kg; in [7] (dogs, orally, apomorphine), 1.5 mg/kg. Moreover, the “Acute toxicity” value in data set [11] was “insoluble”. Further, in data set [13] (dimethylsulphoxide), the solubility in dimethylsulphoxide entry was “soluble”. Besides, the solubility in water entry in data set [13] is “insoluble”.
With `CCCCN1CCN(c2nc(N3CCOCC3)nc(Cl)c2SC)CC1` [Example 29, 2-Morpholino-4-N-butylpiperazino-5-methylthio-6-chloropyrimidine], the ED50 in [3] was 80 mg/kg; in [12], 50 mg/kg; in [6], 55 mg/kg; in [7] (dogs, orally, apomorphine), above 5 mg/kg. Also, in data set [11], the “Acute toxicity” value is “insoluble”. Further, the LD50 in [5] (setting [15]) was around 600 mg/kg. The “solubility in dilute methanesulphonic acid” value in data set [13] is reported as “soluble”. The “solubility in ethanol (alcohol)” value in [13] was “soluble”. In [13], the solubility in water result is “insoluble”.
